Target: V-ATPase
Test: acridine orange quenching (proton-pumping function of V-ATPase) in isolated HEK293 vesicles
Assay type: biochemical
Conditions: read-out: AO Quenching IC50
Method: To assess if ability of diphyllin and derivatives to inhibit endosomal acidification is due to the expected ability of diphyllin to inhibit V-ATPase activity, compounds were assayed for inhibition of both the proton-pumping and ATPase functions of the isolated V-ATPase enzyme. V-ATPase containing vesicles were isolated from HEK293 cells following methods similar to that found in […]. (Zoncu, R. et al., Science 2011, 334, 678-683). To determine the effect of compounds upon the proton pumping function of V-ATPase, isolated vesicles were incubated with acridine orange and the compound or vehicle for 1 h prior to the addition of ATP which initiated pump activity. The quenching of the 530 nm emission of acridine orange was measured over 1h before addition of nigericin to relax the proton gradient within vesicles. IC50 values against the proton-pumping function of V-ATPase could be assessed by quantifying the change in Acridine Orange (AO) fluorescence immediately before and after the addition of nigericin.
HEK293 vesicle isolation-Cells were grown to confluency in a 175 cm^2 flask (Corning) before growth media was removed and replaced with serum-free DMEM for 2 h. 1 μM FCCP in DMEM was then added for 15 min before cells were scrapped form the plate and pelleted at 1000×g for 5 min. […]

`COc1cc2c(OCCCN3CCN(CCO)CC3)c3c(c(-c4ccc5c(c4)OCO5)c2cc1OC)C(=O)OC3` [Compound 2i, 9-(benzo[d][1,3]dioxol-5-yl)-4-(3-(4-(2-hydroxyethyl)piperazin-1-yl)propoxy)-6,7-dimethoxynaphtho[2,3-c]furan-1(3H)-one] showed an IC50 of 61 ± 2.84 nM.
